Like-named read-outs stand apart in the source and are kept apart here.

The target of one test is T1, 5-HT1A receptor (Sus scrofa, UniProt A0A4X1UTF5).
T1 construct: Swine hippocampus was homogenized in a 50 mM Tris-Hcl buffer; from tissue; host or cells: swine hippocampus, membrane fraction
T1 sequence (A0A4X1UTF5 1-422): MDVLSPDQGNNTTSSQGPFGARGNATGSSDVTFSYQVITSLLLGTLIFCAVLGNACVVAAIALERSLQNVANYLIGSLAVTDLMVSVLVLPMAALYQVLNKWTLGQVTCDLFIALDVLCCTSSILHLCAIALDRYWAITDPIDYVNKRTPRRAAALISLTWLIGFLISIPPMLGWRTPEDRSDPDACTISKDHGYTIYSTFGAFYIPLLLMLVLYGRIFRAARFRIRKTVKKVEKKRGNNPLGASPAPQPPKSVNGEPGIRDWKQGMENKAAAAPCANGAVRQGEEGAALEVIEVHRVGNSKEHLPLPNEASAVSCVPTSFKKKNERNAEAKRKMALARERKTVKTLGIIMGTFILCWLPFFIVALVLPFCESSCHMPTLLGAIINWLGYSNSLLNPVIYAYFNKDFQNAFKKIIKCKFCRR
Description: Affinity for serotonin 1A receptor: inhibition of [3H]MPPF binding in swine hippocampal membrane fraction. Conditions: for IC50: swine hippocampal membrane, 37°C 30 min; for L/H ratio: low affinity IC50 divided by high affinity IC50, 1 or smaller = no intrinsic activity, 2 or greater = intrinsic activity. In outline:
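Swine hippocampal membranes incubated 30 min at 37 °C with 0.5 nM [3H]MPPF and test compound in 50 mM Tris-HCl pH 7.4, 1% DMSO, with 10 mM MgCl2 (G-protein-coupled, high-affinity state) or 1 mM Gpp(NH)p (uncoupled, low-affinity state). Bound radioactivity measured by filtration and scintillation counting; nonspecific binding defined with 10 μM WAY-100,635. IC50 in each state; low/high IC50 ratio taken as an estimate of intrinsic activity.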

For test [1], the system named is urinary reflex of Sprague-Dawley female rats. Kind of test: Inhibitory action against accentuated urinary reflex of rat due to destruction of the superior colliculus (cystometrogram). Type of test: in vivo. To be noted: iv, rat with superior colliculus lesion. An excerpt: (1) In the present test, Sprague-Dawley female rates (200-350 g) were used. The rats were subjected to median incision of the abdomen under anesthesia. Thereafter, a hole with a minor diameter was made on the head portion of the bladder, and a catheter used for measurement of an intravesical pressure was placed therein. A catheter used for administration of a test substance was placed in the femoral vein. These catheters were fixed at the occipital region of the rat through the subcutis. One day later, the urinary reflex of the rats was measured with a cystometrogram. Thereafter, the rats were fixed on a brain stereotaxis apparatus under anesthesia, and then subjected to median incision of the scalp. […] Thereafter, electric current was applied (65° C., 4 minutes), so as to damage the brain tissues. After completion of the operation, when the rat awakened from anesthesia, cystometrogram was conducted again to confirm the enhanced state of urinary reflex. A test substance was administered through the catheter placed in the femoral vein, and the action of the test substance to the urinary reflex was evaluated. In addition, the effects of several test substances were compared using the maximal reaction (Emax).

The target in the next test is T2, serotonin 1A receptor (Mus musculus, UniProt Q64264).
T2 construct: into the rectum of CD-1 (ICR) male mice (25-45 g); from tissue; host or cells: living CD-1 (ICR) male mice (in vivo)
T2 sequence (Q64264 1-421): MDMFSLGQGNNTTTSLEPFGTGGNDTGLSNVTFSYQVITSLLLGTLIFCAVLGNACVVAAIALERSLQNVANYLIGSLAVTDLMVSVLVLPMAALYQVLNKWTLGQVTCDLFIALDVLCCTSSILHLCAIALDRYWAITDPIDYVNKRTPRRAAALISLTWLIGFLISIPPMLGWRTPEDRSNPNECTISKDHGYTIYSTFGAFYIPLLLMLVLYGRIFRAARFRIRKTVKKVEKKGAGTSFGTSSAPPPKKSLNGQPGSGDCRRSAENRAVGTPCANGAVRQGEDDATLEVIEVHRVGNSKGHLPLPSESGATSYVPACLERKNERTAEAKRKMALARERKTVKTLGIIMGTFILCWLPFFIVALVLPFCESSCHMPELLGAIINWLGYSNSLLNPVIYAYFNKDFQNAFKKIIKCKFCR
Description: Antagonistic effect on serotonin 1A receptor agonist (8-OH-DPAT)-induced hypothermia in mouse. Type of test: in vivo. Conditions: for ED50: CD-1 (ICR) male mice, inhibition of hypothermia by 8-OH-DPAT 0.5 mg/kg sc, test substance 15 minutes before agonist. How it is done:
(1) A thermistor probe was inserted at a depth of approximately 2 cm into the rectum of CD-1 (ICR) male mice (25-45 g), so as to measure the body temperature thereof. Body temperature is decreased by subcutaneous administration of serotonin 1A receptor agonist (8-hydroxy-dipropylaminotetralin (8-OH-DPAT) 0;5 mg/kg. Since a serotonin 1A antagonist inhibits such action, the antagonistic effect of a test substance to a serotonin 1A receptor was evaluated using the inhibitory effect of the hypothermia as an index. The test results are shown in Table 2 indicated below. A test substance was administered 15 minutes before the administration of the serotonin 1A agonist. A serotonin 1A partial agonist alone decreases the body temperature, depending on the degree of the agonistic action thereof. In addition, it has a weak antagonistic effect on 8-OH-DPAT-induced hypothermia.

Where [2] appears, read: [3H]MPPF 0.5 nM, receptor in high affinity (G-protein binding, MgCl2 10 mM) state, read-out: High affinity IC50.
Where [3] appears, read: [3H]MPPF 0.5 nM, receptor in low affinity (G-protein non-binding, Gpp(NH)p 1 mM) state, read-out: Low affinity IC50.

Broadly, the IC50 is the concentration that gives 50% inhibition. For `COc1ccc2nc(C)oc2c1CCN1CCC(n2ccc3ccc(C(N)=O)cc32)CC1` [Compound 3, 1-{1-[2-(6-methoxy-2-methylbenzoxazol-7-yl)ethyl]piperidin-4-yl}-1H-indole-6-carboxamide], the IC50 on 5-HT1A receptor (setting [2]) was 0.46 nM; at 5-HT1A receptor (setting [3]), 0.34 nM. The L/H ratio on 5-HT1A receptor was 0.7. Besides, in test [1] (dose 0.03 mg/kg), the “Bladder capacity Emax” value is reported as 62%. Further, the ED50 at serotonin 1A receptor is 0.18 mg/kg, sc.
`COc1cc2oc(C)nc2cc1CCN1CCC(n2ccc3ccc(C(N)=O)cc32)CC1` [Compound 4, 1-{1-[2-(6-methoxy-2-methylbenzoxazol-5-yl)ethyl]piperidin-4-yl}-1H-indole-6-carboxamide]: the values for the IC50 at 5-HT1A receptor (setting [2]) and at 5-HT1A receptor (setting [3]) were 0.17 nM and 0.15 nM, respectively. Moreover, on 5-HT1A receptor, the L/H ratio came out at 0.9. For the same compound, in test [1] (dose 0.03 mg/kg), the “Bladder capacity Emax” value turned out to be 107%. For the same compound, on serotonin 1A receptor, the ED50 is listed as 0.1 mg/kg, sc.
On to `COc1cc2cccnc2cc1CCN1CCC(n2ccc3ccc(C(N)=O)cc32)CC1` [Compound 51, 1-{1-[2-(6-methoxyquinolin-7-yl)ethyl]piperidin-4-yl}-1H-indole-6-carboxamide], for which the IC50 on 5-HT1A receptor (High affinity IC50, [3H]MPPF 0.5 nM, receptor in high affinity (G-protein binding, MgCl2 10 mM) state) was 0.18 nM; on 5-HT1A receptor (Low affinity IC50, [3H]MPPF 0.5 nM, receptor in low affinity (G-protein non-binding, Gpp(NH)p 1 mM) state), 0.17 nM. On 5-HT1A receptor, the L/H ratio was 0.9. For the same compound, on serotonin 1A receptor, the ED50 is recorded as 0.66 mg/kg, sc.
For the compound `COc1cc2c(cc1CCN1CCC(n3ccc4ccc(C(N)=O)cc43)CC1)N(C(C)=O)CCC2` [Compound 52, 1-{1-[2-(1-acetyl-6-methoxy-1,2,3,4-tetrahydroquinolin-7-yl)ethyl]piperidin-4-yl}-1H-indole-6-carboxamide], the IC50 at 5-HT1A receptor (setting [2]) turned out to be 0.22 nM; on 5-HT1A receptor (setting [3]), 0.2 nM. Moreover, on 5-HT1A receptor, the L/H ratio is 0.9. Further, the ED50 at serotonin 1A receptor was 0.5 mg/kg, sc.
For `COc1cc2c(cc1CCN1CCC(n3ccc4ccc(C(N)=O)cc43)CC1)N(C)CCC2` [Compound 53, 1-{1-[2-(6-methoxy-1-methyl-1,2,3,4-tetrahydroquinolin-7-yl)ethyl]piperidin-4-yl}-1H-indole-6-carboxamide], the concentration for half-maximal inhibition (IC50) turned out to be 0.31 nM at 5-HT1A receptor (setting [2]) and 0.46 nM at 5-HT1A receptor (setting [3]). Besides, the L/H ratio on 5-HT1A receptor was 1.5. In addition, on serotonin 1A receptor, the ED50 was 0.3 mg/kg, sc.
Regarding `COc1ccc2c(c1CCN1CCC(n3ccc4ccc(C(N)=O)cc43)CC1)CCCN2C(C)=O` [Compound 54, 1-{1-[2-(1-acetyl-6-methoxy-1,2,3,4-tetrahydroquinolin-5-yl)ethyl]piperidin-4-yl}-1H-indole-6-carboxamide], the IC50 was determined as 0.18 nM on 5-HT1A receptor (setting [2]) and 0.13 nM at 5-HT1A receptor (setting [3]). Also, the L/H ratio at 5-HT1A receptor came out at 0.7. In addition, the ED50 on serotonin 1A receptor is recorded as 0.84 mg/kg, sc.
Take `COc1cc2c(cc1CCN1CCC(n3ccc4ccc(C(N)=O)cc43)CC1)N(C)C(=O)CC2` [Compound 57, 1-{1-[2-(6-methoxy-1-methyl-2-oxo-1,2,3,4-tetrahydroquinolin-7-yl)ethyl]piperidin-4-yl}-1H-indole-6-carboxamide]: the IC50 on 5-HT1A receptor (setting [2]) is 0.18 nM; on 5-HT1A receptor (setting [3]), 0.24 nM. Also, the L/H ratio at 5-HT1A receptor is on record as 1.3. For the same compound, the ED50 at serotonin 1A receptor is reported as 0.1 mg/kg, sc.
For the compound `CNC(=O)c1ccc2ccn(C3CCN(CCc4cc5c(cc4OC)CCC(=O)N5C)CC3)c2c1` [Compound 58, 1-{1-[2-(6-methoxy-1-methyl-2-oxo-1,2,3,4-tetrahydroquinolin-7-yl)ethyl]piperidin-4-yl}-N-methyl-1H-indole-6-carboxamide], the IC50 at 5-HT1A receptor (setting [2]) worked out at 0.33 nM; at 5-HT1A receptor (setting [3]) it was 0.39 nM. The L/H ratio at 5-HT1A receptor stood at 1.2. Besides, at serotonin 1A receptor, the ED50 is 0.53 mg/kg, sc.
As for `CCN1C(=O)CCc2cc(OC)c(CCN3CCC(n4ccc5ccc(C(N)=O)cc54)CC3)cc21` [Compound 59, 1-{1-[2-(1-ethyl-6-methoxy-2-oxo-1,2,3,4-tetrahydroquinolin-7-yl)ethyl]piperidin-4-yl}-1H-indole-6-carboxamide], the IC50 was determined as 0.19 nM on 5-HT1A receptor (setting [2]) and 0.12 nM on 5-HT1A receptor (setting [3]). Further, the L/H ratio on 5-HT1A receptor came out at 0.6. Further, the ED50 on serotonin 1A receptor was 0.3 mg/kg, sc.
`CCn1c(=O)oc2cc(OC)c(CCN3CCC(n4ccc5ccc(C(N)=O)cc54)CC3)cc21` [Compound 60, 1-{1-[2-(3-ethyl-6-methoxy-2-oxo-2,3-dihydrobenzoxazol-5-yl)ethyl]piperidin-4-yl}-1H-indole-6-carboxamide]: the IC50 was found to be 0.28 nM at 5-HT1A receptor (setting [2]) and 0.24 nM on 5-HT1A receptor (setting [3]). Also, the L/H ratio at 5-HT1A receptor amounted to 0.9. Besides, on serotonin 1A receptor, the ED50 is 0.52 mg/kg, sc.
Regarding `NC(=O)c1ccc2ccn(C3CCN(CCc4ccc(F)cc4)CC3)c2c1` [Compound A, reference compound], the IC50 on 5-HT1A receptor (setting [2]) was 0.1 nM; at 5-HT1A receptor (read-out: Low affinity IC50, [3H]MPPF 0.5 nM, receptor in low affinity (G-protein non-binding, Gpp(NH)p 1 mM) state), 0.5 nM. Moreover, the L/H ratio at 5-HT1A receptor is 3.7. For the same compound, on 5-HT1A receptor (result in words), the “affinity for 5-HT1A” value is “has affinity”. Further, in test [1] (dose 0.01 mg/kg), the “Bladder capacity Emax” value is on record as −36%. Besides, the ED50 on serotonin 1A receptor is >1 mg/kg, sc. For the same compound, the “antagonistic effect against the receptor” value at serotonin 1A receptor (result in words) is on record as “weak”.

(Values after patent US20050256103A1, “Indole derivative having piperidine ring” (Eisai Co., Ltd., priority 2004, published 2005).)
